In article PMC12282092, “Discovery of a non-nucleoside inhibitor that binds to a novel site in the palm domain of the respiratory syncytial virus RNA-dependent RNA polymerase” (Journal of Virology, 2025):
Where two headings read alike, the source gives them in different places.

Legend:
in vitro = conditions: human
RSV L+P-JNJ-7184 complex = target: T1, RSV L+P-JNJ-7184 complex (Human respiratory syncytial virus A, UniProt P28887); test: SPR A-B-A competition with connector domain binder JNJ-7184; format: binding; conditions: 150 nM JNJ-7184 competitor
T1 construct: a biophysical SPR assay was established using full-length RSV L+P complex; Twin-Strep-tag (N); made in house; host or cells: Sf9 insect cells (baculovirus)
T1 sequence (P03421 whole entry, the tested form may be a part): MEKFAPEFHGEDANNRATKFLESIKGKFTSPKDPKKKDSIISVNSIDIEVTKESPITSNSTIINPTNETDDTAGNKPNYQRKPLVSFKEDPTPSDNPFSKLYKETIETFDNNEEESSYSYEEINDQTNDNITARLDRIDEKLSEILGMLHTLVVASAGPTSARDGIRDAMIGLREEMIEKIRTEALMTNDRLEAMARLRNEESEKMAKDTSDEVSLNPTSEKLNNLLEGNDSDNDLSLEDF
T1 sequence (P28887 whole entry, the tested form may be a part): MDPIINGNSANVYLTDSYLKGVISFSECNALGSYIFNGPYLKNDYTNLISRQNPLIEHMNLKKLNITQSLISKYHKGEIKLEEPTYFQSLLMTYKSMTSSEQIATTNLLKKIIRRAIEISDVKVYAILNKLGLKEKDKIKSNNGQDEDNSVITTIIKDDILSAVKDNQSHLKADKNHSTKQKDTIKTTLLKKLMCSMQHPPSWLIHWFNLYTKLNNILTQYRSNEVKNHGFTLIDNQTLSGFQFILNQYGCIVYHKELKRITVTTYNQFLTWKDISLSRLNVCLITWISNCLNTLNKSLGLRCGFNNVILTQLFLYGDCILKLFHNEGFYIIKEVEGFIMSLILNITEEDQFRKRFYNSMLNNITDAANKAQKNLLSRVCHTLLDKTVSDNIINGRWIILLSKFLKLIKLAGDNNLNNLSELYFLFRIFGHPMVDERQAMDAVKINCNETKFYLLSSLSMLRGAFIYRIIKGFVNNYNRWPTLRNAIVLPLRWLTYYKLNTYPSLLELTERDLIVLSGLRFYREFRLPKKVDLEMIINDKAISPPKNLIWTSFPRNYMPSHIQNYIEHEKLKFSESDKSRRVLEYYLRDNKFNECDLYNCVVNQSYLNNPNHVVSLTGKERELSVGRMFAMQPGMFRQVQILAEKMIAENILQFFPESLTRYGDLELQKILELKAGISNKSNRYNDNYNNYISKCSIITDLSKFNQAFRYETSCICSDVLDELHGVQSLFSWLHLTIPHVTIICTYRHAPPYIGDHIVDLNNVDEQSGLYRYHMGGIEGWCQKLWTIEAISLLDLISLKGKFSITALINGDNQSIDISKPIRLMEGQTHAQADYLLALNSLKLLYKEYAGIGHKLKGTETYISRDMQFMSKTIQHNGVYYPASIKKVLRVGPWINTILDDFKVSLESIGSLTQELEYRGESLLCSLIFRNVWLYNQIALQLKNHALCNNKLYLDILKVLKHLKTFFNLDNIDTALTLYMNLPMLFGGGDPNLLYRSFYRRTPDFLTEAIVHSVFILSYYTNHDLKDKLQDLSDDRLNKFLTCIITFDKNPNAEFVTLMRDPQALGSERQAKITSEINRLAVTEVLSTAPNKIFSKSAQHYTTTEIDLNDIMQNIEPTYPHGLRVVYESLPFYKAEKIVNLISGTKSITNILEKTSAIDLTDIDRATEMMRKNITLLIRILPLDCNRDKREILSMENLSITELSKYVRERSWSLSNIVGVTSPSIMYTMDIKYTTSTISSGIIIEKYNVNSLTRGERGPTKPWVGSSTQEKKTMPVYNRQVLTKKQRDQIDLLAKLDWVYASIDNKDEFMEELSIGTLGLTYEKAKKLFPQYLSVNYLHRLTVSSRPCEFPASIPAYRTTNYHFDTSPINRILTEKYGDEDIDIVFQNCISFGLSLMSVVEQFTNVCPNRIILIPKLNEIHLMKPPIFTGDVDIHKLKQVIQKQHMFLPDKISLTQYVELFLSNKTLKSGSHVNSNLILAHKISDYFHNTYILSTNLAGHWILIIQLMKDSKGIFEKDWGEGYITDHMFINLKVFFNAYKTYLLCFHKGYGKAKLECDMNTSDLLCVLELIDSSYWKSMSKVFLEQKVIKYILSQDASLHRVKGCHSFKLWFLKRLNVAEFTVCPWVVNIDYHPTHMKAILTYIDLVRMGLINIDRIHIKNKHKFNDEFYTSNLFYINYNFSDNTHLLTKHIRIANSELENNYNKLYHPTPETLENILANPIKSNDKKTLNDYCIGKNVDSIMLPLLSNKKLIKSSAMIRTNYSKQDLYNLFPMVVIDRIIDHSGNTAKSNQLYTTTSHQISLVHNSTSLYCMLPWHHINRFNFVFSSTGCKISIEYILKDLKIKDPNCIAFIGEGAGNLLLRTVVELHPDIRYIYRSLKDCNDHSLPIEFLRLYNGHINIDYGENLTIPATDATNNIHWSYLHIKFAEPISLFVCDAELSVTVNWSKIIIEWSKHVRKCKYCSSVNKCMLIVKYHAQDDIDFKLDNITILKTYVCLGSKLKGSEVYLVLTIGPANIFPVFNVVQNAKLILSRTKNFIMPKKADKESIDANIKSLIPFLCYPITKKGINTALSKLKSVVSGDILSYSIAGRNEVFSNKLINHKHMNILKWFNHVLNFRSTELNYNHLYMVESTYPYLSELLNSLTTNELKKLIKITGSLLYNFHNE
Experimental: (§1) Here, the competitor was held at a constant concentration (60 nM for JNJ-8003 and 150 nM for JNJ-7184) during baseline acquisition, association, and dissociation of the test compound.
(§2) The Biacore A-B-A injection method was used to assess compound binding competition. RSVpol was immobilized as above. […] Dissociation of any bound 22 was then measured for 500 s in the presence of a competitor. The temperature was 25°C, and the flow rate was kept at 30 µL/min.

RSV L+P-JNJ-8003 complex = target: T2, RSV L+P-JNJ-8003 complex (Human respiratory syncytial virus A, UniProt P28887); test: SPR A-B-A competition with capping domain binder JNJ-8003; format: binding; conditions: 60 nM JNJ-8003 competitor
T2 construct: a biophysical SPR assay was established using full-length RSV L+P complex; Twin-Strep-tag (N); made in house; host or cells: Sf9 insect cells (baculovirus)
Experimental: as §1, §2

[1] = tested on: rgRSV224 virus (RSV A2) in HeLa cells; test: HeLa cell rgRSV224 eGFP reporter viral proliferation assay; format: cell-based; conditions: RSV eGFP phenotypic assay in HeLa cells; for EC50: MOI 1, 72 h, n ≥ 2, read-out: Cellular EC50; for Emax: read-out: Cellular Emax
Experimental: (§3) Compound serial dilutions (9 point, fourfold) were prepared in DMSO, and 200 nL was transferred to black, 384-well, clear-bottom microtiter plates (Corning, Amsterdam, The Netherlands) via acoustic drop ejection ([36], [50]). […] Then, 20 µL of a HeLa cell suspension (3,000 cells/well) was added with a Multidrop Combi, and cells were incubated at 37°C in a 5% CO2 atmosphere. After 72 h, GFP expression was quantified using an EnVision Multimode Plate Reader (Perkin Elmer, Zaventem, Belgium), and data were normalized to untreated and media-only (no virus) controls. Cytotoxicity was determined in parallel using the ATPlite kit (Perkin Elmer, Zaventem, Belgium). Luminescence was measured in white, 384-well microtiter plates (Corning) on a ViewLux uHTS Microplate Imager apparatus (PerkinElmer, Zaventem, Belgium), and cellular ATP content was quantified by normalizing to untreated and media-only (no cell) controls. […] Figures were prepared with GraphPad Prism.

RSV-B/Wash/18537 = test: microbe, parasite or virus in culture; format: cell-based; conditions: human respiratory syncytial virus; RSV-B/Wash/18537, HeLa cells, RT-qPCR
[2] = target: human mitochondrial RNA polymerase (POLRMT) (Homo sapiens, UniProt O00411); test: POLRMT assay
Chain of human mitochondrial RNA polymerase (POLRMT) (O00411 103-1230): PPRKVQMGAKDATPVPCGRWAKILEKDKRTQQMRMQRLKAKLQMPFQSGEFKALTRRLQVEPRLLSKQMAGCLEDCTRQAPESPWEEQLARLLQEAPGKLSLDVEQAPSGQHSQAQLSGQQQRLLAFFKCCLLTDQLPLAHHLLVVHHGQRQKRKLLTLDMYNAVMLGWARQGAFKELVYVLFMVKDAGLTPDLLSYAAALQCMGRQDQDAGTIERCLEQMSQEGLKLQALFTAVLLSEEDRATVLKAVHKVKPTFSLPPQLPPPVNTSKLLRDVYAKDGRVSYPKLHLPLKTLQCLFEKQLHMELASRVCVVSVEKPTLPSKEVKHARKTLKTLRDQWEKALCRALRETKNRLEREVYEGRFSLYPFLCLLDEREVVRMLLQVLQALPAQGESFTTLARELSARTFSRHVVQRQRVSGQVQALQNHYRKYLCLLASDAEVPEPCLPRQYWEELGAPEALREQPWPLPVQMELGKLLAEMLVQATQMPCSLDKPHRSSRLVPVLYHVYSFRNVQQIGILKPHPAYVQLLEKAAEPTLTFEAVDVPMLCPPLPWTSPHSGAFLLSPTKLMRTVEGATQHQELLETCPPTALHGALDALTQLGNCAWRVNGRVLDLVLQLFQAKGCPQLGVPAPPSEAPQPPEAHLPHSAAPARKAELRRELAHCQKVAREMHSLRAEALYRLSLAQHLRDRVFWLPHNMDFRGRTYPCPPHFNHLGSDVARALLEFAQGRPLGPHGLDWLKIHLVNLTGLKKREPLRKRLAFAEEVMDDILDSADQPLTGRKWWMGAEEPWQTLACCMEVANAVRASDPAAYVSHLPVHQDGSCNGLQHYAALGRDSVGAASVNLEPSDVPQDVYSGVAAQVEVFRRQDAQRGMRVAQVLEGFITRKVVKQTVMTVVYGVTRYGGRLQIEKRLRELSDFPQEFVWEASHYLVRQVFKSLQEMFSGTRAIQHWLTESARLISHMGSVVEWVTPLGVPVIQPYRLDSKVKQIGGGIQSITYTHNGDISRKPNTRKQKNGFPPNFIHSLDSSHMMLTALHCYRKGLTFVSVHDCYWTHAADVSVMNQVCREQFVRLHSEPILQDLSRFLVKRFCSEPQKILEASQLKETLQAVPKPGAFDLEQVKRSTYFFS

[3] = Metabolic stability in liver microsomes; conditions: in vitro intrinsic clearance in human liver microsomes, n = 1
RSV L+P [4] = target: T3, RSV L+P (Human respiratory syncytial virus A, UniProt P28887); test: Single-nucleotide incorporation (primer extension) assays; format: biochemical; conditions: 50 µM 22, primers AC, ACG, ACGA, ACGAG
T3 construct: Biochemical activity of 1 and 22 against full-length RSV L+P; Twin-Strep-tag (N); made in house; host or cells: Sf9 insect cells (baculovirus, pFastBac Dual)
Experimental: Reactions were initiated by the addition of 100 nM [α-^32P]NTP (3,000 Ci/mmol) tracer and run for an additional 30 min before quenching with an equal volume of gel loading buffer (90% formamide, 50 mM EDTA, 0.05% Xylene Cyanol and Bromophenol Blue). Gel images were obtained and processed as described for the de novo assay, and data were normalized to untreated controls to determine percent inhibition.

RSV L+P [5] = target: T3, RSV L+P; test: Pyrophosphate luminescence detection assay, full-length RSV L+P; format: biochemical; conditions: for IC50 / Emax: pyrophosphate luminescence detection assay; for IC50: full-length RSV L+P, n ≥ 2, read-out: Biochemical IC50; for Emax: read-out: Biochemical Emax
Experimental: Working solutions (3×) of RSV L+P (60 nM), substrate (30 µM each of GTP, CTP, UTP, 300 µM ATPαS [Jena Bioscience], 15 µM RNA template TrC-25), detection reagents (6 nM Luciferase, 900 µM luciferin, 3 U/µL ATP Sulfurylase [BioVision], 15 µM adenosine phosphosulfate [APS], 3 mM coenzyme A), were prepared in complete assay buffer. Compounds were dissolved in dimethyl sulfoxide (DMSO) and dispensed to white, 1536-well cyclic olefin copolymer (COC) plates (Corning, 9145BC) using an Echo Acoustic Liquid Handler (Beckman Coulter, San Jose, CA). Substrate (1 µL) and detection reagents (1 µL) were dispensed using a Multidrop Combi Dispenser (ThermoFisher, Waltham, MA), followed by enzyme (1 µL) to initiate the reaction. Final screening concentrations were 20 nM RSV L+P, 10 µM GTP/CTP/UTP, 100 µM ATPαS, 5 µM TrC-25, 2 nM Luciferase (Promega), 300 µM luciferin (Promega), 1 U/µL ATP sulfurylase, 5 µM APS, and 1 mM CoA. […] Luminescence was detected using the PHERAStar FSX (BMG Labtech, Ortenberg, Germany).

[6] = tested on: RSV replicon in APC-126 cells; test: APC-126 minireplicon assay; format: cell-based; conditions: human respiratory syncytial virus, APC-126, 72 h
Experimental: (§4) A proprietary BHK-based cell line, APC-126, harboring the RSV replicon, was obtained from Apath (New York, USA) and cultured in DMEM/Ham’s F-12 50/50, supplemented with 10% (vol/vol) FBS (Gibco), 1% (vol/vol) penicillin-streptomycin (Gibco), 1% (vol/vol) MEM non-essential amino acids (Gibco), 5% (vol/vol) Tryptose Phosphate Broth (Sigma-Aldrich), and 10 µg/mL blasticidin (Invitrogen) at 37°C in a humidified 5% CO2 incubator ([36]). Cells were plated (3,500 cells/well) in white, 96-well, clear-bottom plates (Corning) and incubated for 24 h. Compound serial dilutions (9 point, threefold) were prepared in DMSO and diluted 10-fold in culture media before treating cells (final [DMSO] = 1% [vol/vol]). […] In parallel, cytotoxicity was measured using CellTiter-Glo (Promega) under the same conditions. […] Figures were prepared with GraphPad Prism.

HeLa cells [7] = conditions: HeLa cytotoxicity
RSV-A/A2 = test: microbe, parasite or virus in culture; format: cell-based; conditions: human respiratory syncytial virus; RSV-A/A2, HeLa cells, RT-qPCR
[8] = APC-126 cytotoxicity assay (CellTiter-Glo); format: cell-based; conditions: hamster; APC-126, 72 h; read-out: Replicon CC50
Experimental: as §4

RSV-B/05_036549 = test: microbe, parasite or virus in culture; format: cell-based; conditions: human respiratory syncytial virus; RSV-B/05_036549, HeLa cells, RT-qPCR
HeLa cells [9] = test: HeLa cytotoxicity assay (ATPlite); conditions: HeLa cells
Experimental: as §3

[10] = HeLa cytotoxicity assay (ATPlite); conditions: human, HeLa cells
Experimental: as §3

RSV L+P [11] = target: T3, RSV L+P; test: De novo RNA synthesis assay (TrC-14, +3 site); format: biochemical; conditions: TrC-14 template
Experimental: The reaction was quenched by an equal volume of gel loading buffer consisting of 90% formamide and 50 mM EDTA. Samples were heated to 95°C for 5 min, resolved on a 22.5% polyacrylamide urea sequencing gel at 80 W, and then transferred to Whatman cellulose chromatography paper (Millipore Sigma). The gel was dried for 1 h on a gel dryer (Bio-Rad), exposed to a phosphor screen, and imaged using a Typhoon phosphorimager (GE Healthcare).

RSV L+P [12] = target: T3, RSV L+P; test: Yonetani-Theorell mutual exclusivity analysis; format: biochemical
Experimental: Here, matrix titrations of the two inhibitors were carried out, and initial rates were determined for each inhibitor combination. Data were fitted to the Yonetani-Theorell equation (Supp. equation S1) to determine the interaction constant, γ. […] When γ > 1, binding is antagonistic, and as γ approaches infinity, the ligands are considered mutually exclusive. Conversely, when γ < 1, binding is synergistic.

RSV-A/Long = test: microbe, parasite or virus in culture; format: cell-based; conditions: human respiratory syncytial virus, HeLa cells, RT-qPCR
RSV L+P [13] = target: T3, RSV L+P; test: SPR assay; format: binding; conditions: 25°C
Experimental: A Biacore Series S SA (Cytiva) chip is first derivatized by a 60 s injection of 50 µg/mL Tris NTA-biotin (synthesized in-house). The chip was further conditioned by a 60 s injection of 350 mM EDTA (Cytiva, 28995043) followed by a 60 s injection of 0.5 mM NiCl2 (Cytiva, 28995043). Purified human, recombinant His-tagged RSV L+P protein (C-terminal 8× His) was captured via a 1,200 s injection at 30 µg/mL to obtain immobilization levels of 8,000–9,000 RU. The surface was then blocked with a 60 s injection of 100 µM PEG-biotin (Thermo Scientific). The experiments were performed at 25°C, using a Biacore 8K+ (Cytiva) and running buffer: 10 mM HEPES, 300 mM NaCl, 10 mM MgCl2, pH 7.4, 5% glycerol, 2% DMSO, 0.005% p20, 0.5 mM TCEP. […] Reference and buffer-blank subtracted data were analyzed with the Biacore 8K Insight Evaluation Software and fit to a 1:1 Langmuir model to obtain KD values and binding kinetics.

RSV L+P [14] = target: T3, RSV L+P; test: Mode of inhibition by progress curve analysis; format: biochemical
Experimental: To determine the mode of inhibition, progress curve analysis was carried out with the full-length complex.

[15] = target: Full-length RSV P (1-241) protein (human RSV); test: cryo-EM structure; full-length RSV L+P complex with compound 22; 0.8 mg/mL on grids; global resolution 2.72 Å
[16] = target: coupled enzyme system (ATP sulfurylase, luciferase); test: Pyrophosphate detection counterscreen; format: biochemical; conditions: read-out: PPi counterscreen IC50
Experimental: To determine if compounds were interfering with the sulfurylase or luciferase in the pyrophosphate luminescence detection assay, a counterscreen was developed to monitor activity of the coupling system. Working solutions (3×) of substrate and detection reagents were prepared as before and added to 1536-well white, COC plates containing compound titrations. Then, 1 µL of a 3× solution of 4.5 µM sodium pyrophosphate (Sigma, P8010) was dispensed with the Multidrop Combi to initiate the reaction. […] Luminescence was detected using the PHERAStar FSX. […] Figures were prepared with GraphPad Prism.

[17] = human respiratory syncytial virus, HeLa, 72 h
[18] = human respiratory syncytial virus

CN1C(=O)C2(CCN(c3cnc(C#N)c(Cl)c3)CC2)c2cc(Br)ccc21 [Compound 22, 5-(5-bromo-1-methyl-2-oxospiro[indoline-3,4'-piperidin]-1'-yl)-3-chloropicolinonitrile]
CC50 (in vitro): > 50000 nM | SPR ka in the presence of JNJ-7184 (RSV L+P-JNJ-7184 complex): 140000 M⁻¹ s⁻¹ | SPR kd in the presence of JNJ-7184 (RSV L+P-JNJ-7184 complex): 0.0725 s⁻¹ | Kd (RSV L+P-JNJ-7184 complex; read-out: SPR KD in the presence of JNJ-7184): 520 nM | SPR ka in the presence of JNJ-8003 (RSV L+P-JNJ-8003 complex): 119000 M⁻¹ s⁻¹ | SPR kd in the presence of JNJ-8003 (RSV L+P-JNJ-8003 complex): 0.0628 s⁻¹ | Kd (RSV L+P-JNJ-8003 complex; read-out: SPR KD in the presence of JNJ-8003): 530 nM | EC50 [1]: 2380 nM | EC50 [1, 17]: 2280 nM | Emax [1, 18]: 94% | EC50 (RSV-B/Wash/18537): 2700 nM | IC50 [2]: > 100000 nM | HLM CLint [3]: 10.9 µL/min/mg microsomal protein | inhibition of primer extension, TrC-14 template (RSV L+P [4]): inhibited | IC50 (RSV L+P [5]): 270 nM | Emax (RSV L+P [5]): 105% | EC50 [6]: 2220 nM | CC50 (HeLa cells [7]; line RSV-A/A2): > 50000 nM | CC50 (HeLa cells [7]; line RSV-A/Long): > 50000 nM | CC50 (HeLa cells [7]; line RSV-B/Wash/18537): > 50000 nM | EC50 (RSV-A/A2): 1100 nM | CC50 at 72 h [8]: > 50000 nM | EC50 (RSV-B/05_036549): 1000 nM | Cytotoxicity Emax (HeLa cells [9]): 12.8% | CC50 at 72 h [10]: > 50000 nM | maximal inhibition of pppGA formation (RSV L+P [11]; +3 site): 85% | IC50 (RSV L+P [11]; +3 site, read-out: IC50 of de novo pppGA (pppGpA) formation): 290 nM | IC50 (RSV L+P [11]; IC50 of 11-mer product): 480 nM | maximal inhibition of 11-mer product (RSV L+P [11]): 71% | Yonetani-Theorell interaction constant γ (RSV L+P [12]; 22 titrated with capping domain inhibitor compound 23): 1.1 ± 0.2 | Yonetani-Theorell interaction constant γ (RSV L+P [12]; 22 titrated with connector domain inhibitor compound 24): 0.88 ± 0.72 | EC50 (RSV-A/Long): 970 nM | SPR kd (RSV L+P [13]; immobilized RSV L+P): 0.0609 s⁻¹ | Kd (RSV L+P [13]; immobilized full-length RSV L+P): 470 nM | α (mixed model inhibition) with respect to UTP (RSV L+P [14]; mixed noncompetitive/uncompetitive): 0.33 ± 0.27 | α with respect to TrC-25 RNA template (RSV L+P [14]; noncompetitive): 1.1 ± 0.6

N#Cc1ncc(N2CCC3(CC2)C(=O)Nc2ccccc23)cc1Cl [Compound 20, 3-chloro-5-(2-oxospiro[indoline-3,4'-piperidin]-1'-yl)picolinonitrile]
EC50 [1, 17]: 8340 nM | Emax [1, 18]: 81.4% | HLM CLint [3]: 19.7 µL/min/mg microsomal protein | loss in potency on replacing the bromo substituent with a proton (RSV L+P [5]; compared to 1): 10 fold | IC50 (RSV L+P [5]): 6630 nM | Emax (RSV L+P [5]): 84.7% | Cytotoxicity Emax (HeLa cells [9]): 42.9% | CC50 at 72 h [10]: > 3800 nM

CN1C(=O)C2(CCN(c3cnc(C#N)c(Cl)c3)CC2)c2cc(F)ccc21 [Compound 23, 3-chloro-5-(5-fluoro-1-methyl-2-oxospiro[indoline-3,4'-piperidin]-1'-yl)picolinonitrile]
EC50 [1, 17]: 3670 nM | Emax [1, 18]: 93.3% | HLM CLint [3]: 19 µL/min/mg microsomal protein | Emax (RSV L+P [5]): 103% | Cytotoxicity Emax (HeLa cells [9]): 55.7% | CC50 at 72 h [10]: > 3740 nM

Cc1ccc2c(c1)C1(CCN(c3cnc(C#N)c(Cl)c3)CC1)C(=O)N2 [Compound 17, 3-chloro-5-(5-methyl-2-oxospiro[indoline-3,4'-piperidin]-1'-yl)picolinonitrile]
EC50 [1, 17]: 10900 nM | Emax [1, 18]: 55.1% | HLM CLint [3]: 123 µL/min/mg microsomal protein | IC50 (RSV L+P [5]): 1750 nM | Emax (RSV L+P [5]): 111% | Cytotoxicity Emax (HeLa cells [9]): 8.6% | CC50 at 72 h [10]: > 50000 nM

N#Cc1ncc(N2CCC3(CC2)C(=O)Nc2ccc(Cl)cc23)cc1Cl [Compound 16, 3-chloro-5-(5-chloro-2-oxospiro[indoline-3,4'-piperidin]-1'-yl)picolinonitrile]
EC50 [1, 17]: 8070 nM | Emax [1, 18]: 94.2% | HLM CLint [3]: <7.7 µL/min/mg microsomal protein | IC50 (RSV L+P [5]): 1030 nM | Emax (RSV L+P [5]): 108% | Cytotoxicity Emax (HeLa cells [9]): 45.3% | CC50 at 72 h [10]: > 13000 nM

Full-length RSV P (1-241) protein (natural protein)
stoichiometry N [15]: 4

N#Cc1ncc(N2CCC3(CC2)C(=O)Nc2ccc(F)cc23)cc1Cl [Compound 19, 3-chloro-5-(5-fluoro-2-oxospiro[indoline-3,4'-piperidin]-1'-yl)picolinonitrile]
EC50 [1, 17]: 6540 nM | Emax [1, 18]: 99.9% | HLM CLint [3]: 19 µL/min/mg microsomal protein | IC50 (RSV L+P [5]): 2700 nM | Emax (RSV L+P [5]): 106% | Cytotoxicity Emax (HeLa cells [9]): 52.2% | CC50 at 72 h [10]: > 50000 nM

N#Cc1ncc(N2CCC3(CC2)C(=O)Nc2ccc(Br)cc23)cc1Cl [Compound 1, 5-(5-bromo-2-oxospiro[indoline-3,4'-piperidin]-1'-yl)-3-chloropicolinonitrile]
EC50 [1, 17]: 6680 nM | Emax [1, 18]: 94.6% | IC50 [2]: > 100000 nM | POLRMT IC50 ([2]; 8 nM POLRMT): no activity | HLM CLint [3]: <7.7 µL/min/mg microsomal protein | Emax (RSV L+P [5]): 110% | IC50 [16]: > 100000 nM | Cytotoxicity Emax (HeLa cells [9]): 63.1% | CC50 at 72 h [10]: > 3800 nM
